“And” between values parts separate entries of the source, which are not always exact repeats. Equal values may be shown once. Read-outs that look alike come from different tables or passages of the source. Bridge positions count the residues as written; N and C are the ends. Square brackets hold non-standard residues; d marks the D form. Peptide text beside a SMILES is read from it. S5 = C=CCCC[C@](C)(N)C(=O)O; Nle = CCCC[C@H](N)C(=O)O; Aib = CC(C)(N)C(=O)O
Assays:
[1] = system: Influenza B Brisbane/60/2008; experiment: Cytopathic effect (CPE) inhibition in MDCK cells, neutral red; type: cell-based
[2] = mouse, in vivo
[3] = system: Influenza A H3N2 Influenza A/Brisbane/10/2007; experiment: microbe, parasite or virus in culture; type: cell-based, influenza A virus
[4] = system: Influenza B/Brisbane/60/2008; experiment: microbe, parasite or virus in culture; type: cell-based
[5] = system: H5N1 A/Hong Kong/213/2003; experiment: microbe, parasite or virus in culture; type: cell-based, influenza A virus
[6] = system: Influenza A H1N1 Influenza A/Texas/4/2009; experiment: microbe, parasite or virus in culture; type: cell-based, influenza A virus
[7] = system: Influenza A H1N1 Influenza A/California/7/2009; experiment: microbe, parasite or virus in culture; type: cell-based, influenza A virus
H3N2 Perth/16/2009 [8] = experiment: microbe, parasite or virus in culture; type: cell-based, influenza A virus
H1N1 California/07/2009 [9] = experiment: microbe, parasite or virus in culture; type: cell-based, influenza A virus
[10] = system: Influenza B Florida/04/2006; experiment: Cytopathic effect (CPE) inhibition in MDCK cells, neutral red; type: cell-based
H1N1 A/PR/8/34 = details: read-out: EC50 (μM), Cytopathic effect by Neutral Red
[11] = system: H1N1 A/Solomon Island/03/2006; type: cell-based, influenza A virus; details: read-out: EC50 (μM), Cytopathic effect by Neutral Red
[12] = system: influenza virus, various viral strains; type: cell-based
H3N2 Perth/16/2009 [13] = experiment: microbe, parasite or virus in culture; type: cell-based, influenza A virus; remark: listed apart in the source
in vitro = details: dog
H7N9 A/Anhui/1/2013 = experiment: microbe, parasite or virus in culture; type: cell-based, influenza A virus
H1N1 A/Brisbane/59/2007 = experiment: Cytopathic effect (CPE) inhibition in MDCK cells, neutral red; type: cell-based, influenza A virus
[14] = system: influenza virus, various viral strains; experiment: Influenza antiviral evaluation assay (CPE, neutral red dye uptake) in MDCK cells against various viral strains (Tables 8, 9); type: cell-based
H1N1 California/07/2009 [15] = experiment: microbe, parasite or virus in culture; type: cell-based, influenza A virus; details: read-out: EC50 (μM) H1N1 California/07/2009
[16] = read-out: EC50 (μM), Cytopathic effect by Neutral Red
[17] = read-out: EC50 (μM) H3N2 Perth/16/2009

## CCCC[C@H](NC(C)=O)C(=O)N[C@@H](CC(=O)O)C(=O)N[C@H](C(=O)N[C@@H](CC(N)=O)C(=O)N[C@@]1(C)CCCC=CCCC[C@@](C)(C(=O)N[C@@H](CC(C)C)C(=O)N[C@@H](C)C(=O)N[C@H](C(=O)NC(C)(C)C(=O)N[C@@H](C)C(=O)N[C@@H](CCC(N)=O)C(N)=O)C(C)C)NC(=O)[C@H](CC(C)C)NC(=O)[C@H](CC(C)C)NC(=O)[C@H]([C@@H](C)O)NC1=O)C(C)C [SP-6] (Ac-[Nle]DVN[S5]TLL[S5]LAV[Aib]AQ-NH2; staple 5-9)
[1]; read-out: EC50
  EC50: 7.1 µM
[1]; [16]
  EC50: 1.5 to 10 µM
[2]
  survival: all mice survived
[3]; read-out: EC50
  EC50: > 100 µM
[3]; read-out: EC90
  EC90: > 100 µM
[4]
  EC50: > 100 µM
  EC90: > 100 µM
[5]; read-out: EC50
  EC50: > 100 µM
[5]; [16]
  EC50: > 50 µM
[6]; read-out: EC50
  EC50: > 100 µM
[6]; read-out: EC90
  EC90: > 100 µM
[7]; read-out: EC50
  EC50: > 100 µM
[7]; read-out: EC90
  EC90: > 100 µM
H3N2 Perth/16/2009 [8]
  EC90: 22 µM
H3N2 Perth/16/2009 [8]; [17]
  EC50: 25 to 50 µM
H1N1 California/07/2009 [9]; read-out: EC50 (μM) H1N1 California/07/2009
  EC50: 10 to 25 µM
H1N1 California/07/2009 [9]; read-out: EC90
  EC90: > 36 µM
[10]; read-out: EC50
  EC50: 18 µM
[10]; [16]
  EC50: 10 to 25 µM
H1N1 A/PR/8/34
  EC50: 10 to 25 µM
[11]
  EC50: 1.5 to 10 µM and < 1.5 µM
[12]
  EC50: > 100 µM
  EC90: > 100 µM and 66 µM and 65 µM
H3N2 Perth/16/2009 [13]; [17]
  EC50: 25 to 50 µM
H3N2 Perth/16/2009 [13]; [16]
  EC50: 1.5 to 10 µM
In vitro; CC50
  CC50: > 100 µM
In vitro; CC50 (μM) H1N1 California/07/2009, Cell cytotoxicity (CC), run with H1N1 California/07/2009
  CC50: > 100 µM
In vitro; CC50 (μM) H3N2 Perth/16/2009, Cell cytotoxicity (CC), run with H3N2 Perth/16/2009
  CC50: > 100 µM
In vitro; CC50, MDCK cells, run with Influenza A H1N1 Brisbane/59/2007, Neutral Red
  CC50: > 100 µM
In vitro; CC50, MDCK cells, run with Influenza A H1N1 Brisbane/59/2007, Visual
  CC50: > 100 µM
In vitro; CC50, MDCK cells, run with Influenza A H1N1 California/04/2009-M, Neutral Red
  CC50: > 100 µM
In vitro; CC50, MDCK cells, run with Influenza A H1N1 California/04/2009-M, Visual
  CC50: > 100 µM
In vitro; CC50, MDCK cells, run with Influenza A H1N1 California/07/2009, VYR/Neutral Red
  CC50: > 100 µM
In vitro; CC50, MDCK cells, run with Influenza A H1N1 Solomon Is./3/2006-M, Neutral Red
  CC50: > 100 µM
In vitro; CC50, MDCK cells, run with Influenza A H1N1 Solomon Is./3/2006-M, Visual
  CC50: > 100 µM
In vitro; CC50, MDCK cells, run with Influenza A H1N1 Solomon Is./03/2006, Neutral Red
  CC50: > 100 µM
In vitro; CC50, MDCK cells, run with Influenza A H1N1 Solomon Is./03/2006, Visual
  CC50: > 100 µM
In vitro; CC50, MDCK cells, run with Influenza A H3N2 Perth/16/2009, Neutral Red
  CC50: > 100 µM
In vitro; CC50, MDCK cells, run with Influenza A H3N2 Perth/16/2009, VYR/Neutral Red
  CC50: > 100 µM
In vitro; CC50, MDCK cells, run with Influenza A H3N2 Perth/16/2009, Visual
  CC50: > 100 µM
In vitro; CC50, MDCK cells, run with Influenza A H3N2 Victoria/3/75-M, Neutral Red
  CC50: > 100 µM
In vitro; CC50, MDCK cells, run with Influenza A H3N2 Victoria/3/75-M, Visual
  CC50: > 100 µM
In vitro; CC50, MDCK cells, run with Influenza B Brisbane/60/2008, Neutral Red
  CC50: > 100 µM
In vitro; CC50, MDCK cells, run with Influenza B Brisbane/60/2008, Visual
  CC50: > 100 µM
In vitro; CC50, MDCK cells, run with Influenza B Florida/04/2006, Neutral Red
  CC50: 98 µM
In vitro; CC50, MDCK cells, run with Influenza B Florida/04/2006, Visual
  CC50: > 100 µM
In vitro; CC50, MDCK cells, run with Influenza B Sichuan/379/99-M, Neutral Red
  CC50: > 100 µM
In vitro; CC50, MDCK cells, run with Influenza B Sichuan/379/99-M, Visual
  CC50: > 100 µM
In vitro; CC50, run with Influenza A H3N2 Perth/16/2006 (so in the source), Neutral Red
  CC50: > 100 µM
In vitro; CC50, run with Influenza A H3N2 Perth/16/2006 (so in the source), Visual
  CC50: > 100 µM
H7N9 A/Anhui/1/2013; read-out: EC50
  EC50: > 100 µM
H7N9 A/Anhui/1/2013; [16]
  EC50: > 50 µM
H1N1 A/Brisbane/59/2007; read-out: EC50
  EC50: 5.6 µM and 5.5 µM
H1N1 A/Brisbane/59/2007; [16]
  EC50: 1.5 to 10 µM
[14]
  antiviral activity across influenza strains: broad antiviral activity
H1N1 California/07/2009 [15]
  EC50: 10 to 25 µM

— patent publication US10059741B2 (priority 2015, dated 2018)
